Experimental data from patent US11506670B2, “Method of genome-wide direct identification of electrophile-sensing targets” (Cornell University, priority 2018, dated 2022).

Assays:
[1] = tested on: ten HaloTag proteins in HEK-293 cells; test: T-REX gel-based screen of Halo ORF clones for HNE-sensitive targets; assay type: cell-based
Protocol: Individual wells in a 48-well plate contained live HEK-293 cells ectopically expressing a unique HaloTagged gene of interest. The cells were subjected to T-REX™ delivery-HNE(alkyne) targeting on demand. Post cell lysis, all samples were treated with TEV protease and subsequently subjected to Click coupling reaction with Cy5 azide. Probing with Halo antibody allowed evaluation of expression level (and/or solubility under the lysis conditions used). […] For example, RRM1, PRKCD, p53R2, and Keap1 (positive control) had roughly similar expression levels. Only RRM1 and Keap1 were HNE-sensitive although all four targets have been previously identified to be potentially redox/HNE-sensitive (Holmstrom et al., “Cellular Mechanisms and Physiological Consequences of Redox-Dependent Signalling,” Nat. Rev. Mol. Cell. Biol. 15:411-21 (2014); Jacobs et al., “Systems Analysis of Protein Modification and Cellular Responses Induced by Electrophile Stress,” Acc. Chem. Res. 43:673-83 (2010); Delmastro-Greenwood et al., “Redox-Dependent Anti-Inflammatory Signaling Actions of Unsaturated Fatty Acids,” Annu. Rev. Physiol. 76:79-105 (2014); Crunkhorn S., “Deal Watch: Abbott Boosts Investment in NRF2 Activators for Reducing Oxidative Stress,” Nat. Rev. Drug Discov. […]

Ube2V1 = biological target: T1, Ube2V1 (Homo sapiens, UniProt Q13404); test: T-REX targeted delivery efficiency, in-gel fluorescence (Cy5 Click); assay type: cell-based; settings: HEK293T, Halo-Ube2V1
T1 construct: the gene of interest (GOI) was PCR-amplified out from the original plasmid; expressed in transfected cells; host or cells: HEK 293T
Protocol: HEK 293T cells were maintained in 1×MEM+ Glutamax™ media supplemented with 10% FBS, 1×NEAA, 1× sodium pyruvate and 1× Pen-Strep. Cells were grown in a humidified, 5% CO2 incubator at 37° C. For in-gel fluorescence analysis and western blot, ˜0.7-0.8×10^6 HEK 293T cells were seeded in 8 cm^2 tissue culture dishes. 24 h later, cells were transfected using TransIT-2020 transfection reagent per the manufacturer's recommendation. Subsequent steps were performed under dim light. 24-36 h post transfection, monolayer of cells were treated with 25 μM Ht-PreHNE in serum-free media and incubated for 2.5 h. Cells were gently rinsed with serum-free media three times every 30 min over the next 1.5 h. Meanwhile, UV lamps were turned on 10 min prior to UV irradiation time. For samples designated for light exposure, lids were removed from the dishes and cells were placed under 365 nm UV light for 5-8 min. The cells were harvested, washed two times with ice-cold PBS and frozen in liquid nitrogen.
All steps were performed in dark or under dim light. Cells from 8 cm^2 plates were lysed in 30 μL buffer containing 50 mM HEPES (pH 7.6), 150 mM NaCl, 1% Nonidet P-40, 1× Roche cOmplete, mini, EDTA-free protease inhibitor cocktail, and 0.3 mM TCEP by rapid freeze-thaw (×3). […] Protein concentration of the clarified lysate was determined using Bradford assay. […]

T1 sequence (Q13404 1-170 isoform Q13404-2): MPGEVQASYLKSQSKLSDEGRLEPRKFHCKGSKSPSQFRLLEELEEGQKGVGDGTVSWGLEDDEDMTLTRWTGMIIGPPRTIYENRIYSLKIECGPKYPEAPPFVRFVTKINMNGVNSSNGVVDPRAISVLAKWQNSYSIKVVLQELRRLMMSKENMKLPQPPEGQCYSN

With `CCCCCC(O)/C=C/C=O` (centres unmarked) [HNE, 4-hydroxynonenal] the “proteins modified by HNE in the screen besides positive control Keap1” value [1] was “RRM1 and HSPB7” and the “T-REX targeted delivery efficiency” value (Ube2V1) was 5±2%.
